Where a SMILES comes first, the peptide text is derived from it.
COC(=O)[C@H](Cc1ccccc1)NC(=O)[C@@H](N)CC(=O)O (H-Asp-Phe-OMe)
solubility (mole fraction)
Details | in ethanol | in methanol | in water
278.15 K | 3.16e-05 | 0.000532 | 0.000338
283.15 K | 4.53e-05 | 0.000593 | 0.000408
288.15 K | 6.19e-05 | 0.000665 | 0.000483
293.15 K | 8.48e-05 | 0.00074 | 0.000581
298.15 K | 0.000113 | 0.000832 | 0.000701
303.15 K | 0.000144 | 0.000939 | 0.000836
308.15 K | 0.000187 | 0.00107 | 0.00102
313.15 K | 0.000236 | 0.0012 | 0.00123
318.15 K | 0.000291 | 0.00136 | 0.0015
323.15 K | 0.000347 | 0.00155 | 0.00182
328.15 K | 0.000418 | 0.00175 | 0.00224
333.15 K | 0.000493 | 0.002 | 0.00274

Reference: BigSolDB 2.1
